Test results taken from publication PMC5067704 (ACS Infectious Diseases, 2016).
Values after ≈ are worked out from the molar mass of the structure shown. Read-outs that look alike come from different tables or passages of the source.

Assays:
[1] = test system: E. coli lpxC mutant; experiment: microbe, parasite or virus in culture; assay type: cell-based; settings: Escherichia coli, read-out: MIC E. coli lpxC mutant
[2] = test system: E. coli lpxC/tolC mutant; experiment: microbe, parasite or virus in culture; assay type: cell-based; settings: Escherichia coli, read-out: MIC E. coli lpxC/tolC mutant
[3] = test system: E. coli clin isol; experiment: MIC determination, E. coli clinical isolate (first column); assay type: cell-based; settings: Escherichia coli, n = 4
[4] = test system: E. coli MB4827; experiment: MIC determination, E. coli MB4827; assay type: cell-based; settings: Escherichia coli, n = 4
[5] = test system: E. coli ATCC 25922; experiment: MIC determination, E. coli ATCC 25922 (wild type); assay type: cell-based, Escherichia coli; settings: for MIC: Escherichia coli
[6] = target: T1, E. coli dihydrofolate reductase (eDHFR) (Escherichia coli, UniProt P0ABQ4); experiment: DHFR enzyme inhibition assay; assay type: biochemical
T1 construct: host or cells: cell-free (PURExpress in vitro protein synthesis)

[7] = test system: E. coli tolC mutant; experiment: microbe, parasite or virus in culture; assay type: cell-based, Escherichia coli; settings: for MIC: Escherichia coli, read-out: MIC E. coli tolC mutant
[8] = test system: E. coli clin isol; experiment: MIC determination, E. coli clinical isolate (second column); assay type: cell-based; settings: Escherichia coli, n = 4
[9] = Cytotoxicity assay (resazurin), HepG2; assay type: cell-based; settings: human, HepG2 cells, 20 h incubation, highest concentration 60 μM
[10] = test system: E. coli DC2 mutant; experiment: microbe, parasite or virus in culture; assay type: cell-based; settings: Escherichia coli, DC2MUTANT, read-out: MIC E. coli DC2 mutant
[11] = test system: S. aureus ATCC 25923; experiment: MIC determination, S. aureus ATCC 25923; assay type: cell-based; settings: Staphylococcus aureus
[12] = Cytotoxicity assay (resazurin), HEK 293; assay type: cell-based; settings: human, HEK293 cells, 20 h incubation, highest concentration 60 μM
[13] = test system: membrane-impaired mutant E. coli (LpxC and DC2); experiment: microbe, parasite or virus in culture; settings: Escherichia coli, read-out: MIC membrane-impaired mutant E. coli (LpxC and DC2)
[14] = test system: E. coli (ATCC 25922); experiment: LC-MS/MS bacterial accumulation assay, wild type E. coli; assay type: cell-based, Escherichia coli; settings: example of the calculation; strain and dose not stated
[15] = ATCC25922, wild type, n = 4, read-out: MIC E. coli ATCC 25922
[16] = ATCC25923, n = 4, read-out: MIC S. aureus ATCC 25923

T1 sequence (P0ABQ4 whole entry): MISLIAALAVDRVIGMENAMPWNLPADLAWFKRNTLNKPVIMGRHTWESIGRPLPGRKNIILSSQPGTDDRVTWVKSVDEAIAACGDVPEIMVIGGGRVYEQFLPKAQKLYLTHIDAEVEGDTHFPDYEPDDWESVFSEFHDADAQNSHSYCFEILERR

| SMILES | MIC [1] [µg/mL] | MIC [2] [µg/mL] | MIC [3] [µg/mL] | MIC [4] [µg/mL] | MIC [5, 15] [µg/mL] | IC50 [6] [µM] | MIC [7] [µg/mL] | MIC [8] [µg/mL] | CC50 at 20 h [9] [µM] | MIC [10] [µg/mL] | MIC [11, 16] [µg/mL] | CC50 at 20 h [12] [µM] | MIC [13] [µg/mL] | antimicrobial activity, fold less active than TMP ([5]; E. coli strains of Table 1) | MIC ([5]; ATCC25922, molar equivalent of the μg/mL value, read-out: MIC E. coli ATCC 25922, in μM) [µM] | measured concentration using LC-MS/MS (lysate) [14] [µM] | MIC E. coli ΔtolC ([7]; molar equivalent of the μg/mL value) [µM] | MIC ([11]; ATCC25923, molar equivalent of the μg/mL value, read-out: MIC S. aureus ATCC 25923, in μM) [µM] |
| --- | --- | --- | --- | --- | --- | --- | --- | --- | --- | --- | --- | --- | --- | --- | --- | --- | --- | --- |
| COc1cc(Cc2cnc(N)nc2N)cc(OC)c1OCCCn1cc(CNC(=O)Cc2cc(=O)oc3cc(N(C)C)ccc23)nn1 [13a] | > 64 | 8 (≈ 12.4 µM) | > 64 | > 64 | > 64 | 0.083 | 8 (≈ 12.4 µM) | > 64 | > 60 | > 64 | > 64 | > 60 | – | – | – | – | – | – |
| COc1cc(Cc2cnc(N)nc2N)cc(OC)c1OC [TMP, trimethoprim, reference compound] | – | 0.125 (≈ 0.431 µM) | 0.5 (≈ 1.72 µM) | 1 (≈ 3.44 µM) | 0.5 | – | 0.125 (≈ 0.431 µM) | 0.5 (≈ 1.72 µM) | – | 0.25 (≈ 0.861 µM) | 1 | – | 0.25 to 0.5 (≈ 0.861 to 1.72 µM) | – | – | – | – | – |
| COc1cc(Cc2cnc(N)nc2N)cc(OC)c1OCCCN=[N+]=[N-] [8a] | – | 0.25 (≈ 0.696 µM) | 8 (≈ 22.3 µM) | 8 (≈ 22.3 µM) | 8 | 0.066 | 0.25 (≈ 0.696 µM) | 4 (≈ 11.1 µM) | > 60 | 4 (≈ 11.1 µM) | 4 | > 60 | – | 8–16 fold | – | – | – | – |
| COc1cc(Cc2cnc(N)nc2N)cc(OC)c1OCCCCCN=[N+]=[N-] [8c] | 8 (≈ 20.6 µM) | 0.25 (≈ 0.645 µM) | 16 (≈ 41.3 µM) | 32 (≈ 82.6 µM) | 32 | 0.14 | 0.125 (≈ 0.323 µM) | 16 (≈ 41.3 µM) | > 60 | 8 (≈ 20.6 µM) | 4 | > 60 | – | – | – | – | – | – |
| COc1cc(Cc2cnc(N)nc2N)cc(OC)c1OCCCCCn1cc(CNC(=O)Cc2cc(=O)oc3cc(N(C)C)ccc23)nn1 [compound 13c] | > 64 | 1 (≈ 1.49 µM) | > 64 | > 64 | > 64 | 0.668 | 1 (≈ 1.49 µM) | > 64 | > 60 | > 64 | > 64 | > 60 | – | – | – | – | – | – |
| COc1cc(Cc2cnc(N)nc2N)cc(OC)c1OCCCn1cc(CNS(=O)(=O)c2cccc3c(N(C)C)cccc23)nn1 [compound 14a] | > 64 | 0.5 (≈ 0.772 µM) | > 64 | > 64 | > 64 | 0.162 | 0.5 (≈ 0.772 µM) | > 64 | > 60 | > 64 | > 64 | 59 | – | – | – | – | – | – |
| COc1cc(Cc2cnc(N)nc2N)cc(OC)c1OCCCCn1cc(CNc2ccc([N+](=O)[O-])c3nonc23)nn1 [compound 12b] | > 64 | 0.5 (≈ 0.845 µM) | > 64 | > 64 | – | 0.148 | 0.25 (≈ 0.423 µM) | > 64 | > 60 | > 64 | – | > 60 | – | – | 24 | 7.122 | 0.37 | > 94 |
| COc1cc(Cc2cnc(N)nc2N)cc(OC)c1OCCCCn1cc(CNC(=O)Cc2cc(=O)oc3cc(N(C)C)ccc23)nn1 [compound 13b] | > 64 | 2 (≈ 3.04 µM) | > 64 | > 64 | > 64 | 0.162 | 2 (≈ 3.04 µM) | > 64 | > 60 | > 64 | > 64 | > 60 | – | – | – | – | – | – |
| COc1cc(Cc2cnc(N)nc2N)cc(OC)c1OCCCCCn1cc(CNS(=O)(=O)c2cccc3c(N(C)C)cccc23)nn1 [compound 14c] | > 64 | 0.25 (≈ 0.37 µM) | > 64 | > 64 | > 64 | 0.509 | 0.25 (≈ 0.37 µM) | > 64 | 51 | > 64 | 32 | 32 | – | – | – | – | – | – |
| COc1cc(Cc2cnc(N)nc2N)cc(OC)c1OCCCCN=[N+]=[N-] [8b] | – | 0.25 (≈ 0.669 µM) | 8 (≈ 21.4 µM) | 16 (≈ 42.8 µM) | 32 | 0.097 | 0.125 (≈ 0.335 µM) | 16 (≈ 42.8 µM) | > 60 | 8 (≈ 21.4 µM) | 4 | > 60 | – | – | – | – | – | – |
| COc1cc(Cc2cnc(N)nc2N)cc(OC)c1OCCCCCn1cc(CNc2ccc([N+](=O)[O-])c3nonc23)nn1 [compound 12c] | > 64 | 0.5 (≈ 0.826 µM) | > 64 | > 64 | > 64 | 0.208 | 0.5 (≈ 0.826 µM) | > 64 | > 60 | > 64 | 8 | 46 | – | – | – | – | – | – |
| COc1cc(Cc2cnc(N)nc2N)cc(OC)c1OCCCn1cc(CNc2ccc([N+](=O)[O-])c3nonc23)nn1 [12a] | > 64 | 1 (≈ 1.73 µM) | > 64 | > 64 | > 64 | 0.254 | 2 (≈ 3.46 µM) | > 64 | > 60 | > 64 | 64 | > 60 | – | – | – | – | – | – |
| COc1cc(Cc2cnc(N)nc2N)cc(OC)c1OCCCCn1cc(CNS(=O)(=O)c2cccc3c(N(C)C)cccc23)nn1 [compound 14b] | > 64 | 1 (≈ 1.51 µM) | > 64 | > 64 | > 64 | 0.226 | 0.5 (≈ 0.756 µM) | > 64 | > 60 | > 64 | 64 | 59 | – | – | – | – | – | – |
